This passage reports IC50 results from US7893074B2, “2, 4-pyrimidinediamines useful in the treatment of neoplastic diseases, inflammatory and immune system disorders” (Novartis AG, priority 2003, dated 2011).

Molecules are shown by their SMILES. Read-outs that look alike come from different tables or passages of the source.

Experiment [1] concerns Mouse mammary carcinoma 4T1 cells. The experiment can be described thus: Anchorage-independent tumor cell growth assay. The experiment is classed as cell-based. The method, then: Cells are cultured for 2 h and inhibitors are added at various concentrations in a final concentration of 0.1% DMSO. After 48 h, cell growth is assayed with the cell counting kit-8 (Wako Pure Chemical), which uses a water soluble tetrazolium salt WST8. Twenty μL of the reagent is added into each well and cells are further cultured for 2 h. The optical density is measured at 450 nm.

Experiment [2] has as its target FAK (Mus musculus, UniProt P34152). The experiment can be described thus: Phos IC50 (phosphorylation). It counts as cell-based.
Experiment [3] concerns T Cell. The experiment can be described thus: T Cell Migration. It counts as cell-based.
The target in experiment [4] is Focal Adhesion Kinase (FAK) (Homo sapiens, UniProt Q05397). Put plainly: FAK assay system (Focal Adhesion Kinase inhibition). The experiment is classed as biochemical.
Sequence of Focal Adhesion Kinase (FAK) (Q05397 384-706): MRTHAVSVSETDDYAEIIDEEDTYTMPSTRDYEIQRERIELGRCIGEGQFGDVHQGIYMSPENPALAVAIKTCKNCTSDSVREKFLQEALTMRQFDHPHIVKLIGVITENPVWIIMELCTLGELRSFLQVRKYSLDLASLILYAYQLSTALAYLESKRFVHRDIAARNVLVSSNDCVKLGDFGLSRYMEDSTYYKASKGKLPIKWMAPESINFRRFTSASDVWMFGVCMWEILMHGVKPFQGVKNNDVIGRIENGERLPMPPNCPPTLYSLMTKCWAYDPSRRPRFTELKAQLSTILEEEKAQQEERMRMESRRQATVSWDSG
For experiment [5], the target named is IGF-IR (Homo sapiens, UniProt P08069). Put plainly: Cellular Capture ELISA of IGF-I induced autophosphorylation of the IGF-IR. It counts as cell-based. The following applies: read-out: IGF-1R IC50. The method, then: In this assay the activity of the compounds of the invention against Insulin-like growth factor I (IGF-I) induced autophosphorylation of the IGF-IR is determined.
Sequence of IGF-IR (P08069 31-1367): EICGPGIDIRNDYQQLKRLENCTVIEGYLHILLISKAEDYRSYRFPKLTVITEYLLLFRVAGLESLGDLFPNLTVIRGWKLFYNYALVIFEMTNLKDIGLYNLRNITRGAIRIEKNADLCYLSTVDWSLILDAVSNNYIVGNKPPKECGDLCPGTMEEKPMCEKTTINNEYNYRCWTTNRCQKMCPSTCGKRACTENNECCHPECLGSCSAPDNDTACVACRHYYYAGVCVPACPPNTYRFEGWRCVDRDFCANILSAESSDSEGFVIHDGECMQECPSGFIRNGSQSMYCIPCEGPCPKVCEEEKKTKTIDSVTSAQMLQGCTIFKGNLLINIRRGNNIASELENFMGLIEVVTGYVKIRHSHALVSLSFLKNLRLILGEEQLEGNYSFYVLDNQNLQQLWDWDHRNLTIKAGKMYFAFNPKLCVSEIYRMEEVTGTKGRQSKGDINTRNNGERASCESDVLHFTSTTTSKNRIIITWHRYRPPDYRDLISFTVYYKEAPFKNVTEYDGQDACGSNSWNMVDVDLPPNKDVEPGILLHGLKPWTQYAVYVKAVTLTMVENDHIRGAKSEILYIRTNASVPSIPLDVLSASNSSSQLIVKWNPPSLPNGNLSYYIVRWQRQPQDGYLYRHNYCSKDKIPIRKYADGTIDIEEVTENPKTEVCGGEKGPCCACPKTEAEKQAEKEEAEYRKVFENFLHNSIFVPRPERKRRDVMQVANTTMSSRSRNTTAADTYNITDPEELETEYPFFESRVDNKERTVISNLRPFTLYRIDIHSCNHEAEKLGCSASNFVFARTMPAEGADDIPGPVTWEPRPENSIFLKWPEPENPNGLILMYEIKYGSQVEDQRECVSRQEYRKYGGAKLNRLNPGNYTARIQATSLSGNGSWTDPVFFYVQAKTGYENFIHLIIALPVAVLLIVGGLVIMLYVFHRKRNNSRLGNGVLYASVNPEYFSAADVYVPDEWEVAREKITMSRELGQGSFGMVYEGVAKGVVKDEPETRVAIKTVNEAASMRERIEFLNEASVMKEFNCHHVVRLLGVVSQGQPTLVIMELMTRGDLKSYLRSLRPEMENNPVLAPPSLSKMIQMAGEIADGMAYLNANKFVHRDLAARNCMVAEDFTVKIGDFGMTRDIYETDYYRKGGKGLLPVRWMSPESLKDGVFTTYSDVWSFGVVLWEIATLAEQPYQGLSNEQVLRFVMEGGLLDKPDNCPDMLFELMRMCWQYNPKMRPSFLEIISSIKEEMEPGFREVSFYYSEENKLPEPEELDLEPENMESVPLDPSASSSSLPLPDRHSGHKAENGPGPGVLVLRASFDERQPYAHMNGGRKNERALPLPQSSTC

Sequence of FAK (P34152 2-1052): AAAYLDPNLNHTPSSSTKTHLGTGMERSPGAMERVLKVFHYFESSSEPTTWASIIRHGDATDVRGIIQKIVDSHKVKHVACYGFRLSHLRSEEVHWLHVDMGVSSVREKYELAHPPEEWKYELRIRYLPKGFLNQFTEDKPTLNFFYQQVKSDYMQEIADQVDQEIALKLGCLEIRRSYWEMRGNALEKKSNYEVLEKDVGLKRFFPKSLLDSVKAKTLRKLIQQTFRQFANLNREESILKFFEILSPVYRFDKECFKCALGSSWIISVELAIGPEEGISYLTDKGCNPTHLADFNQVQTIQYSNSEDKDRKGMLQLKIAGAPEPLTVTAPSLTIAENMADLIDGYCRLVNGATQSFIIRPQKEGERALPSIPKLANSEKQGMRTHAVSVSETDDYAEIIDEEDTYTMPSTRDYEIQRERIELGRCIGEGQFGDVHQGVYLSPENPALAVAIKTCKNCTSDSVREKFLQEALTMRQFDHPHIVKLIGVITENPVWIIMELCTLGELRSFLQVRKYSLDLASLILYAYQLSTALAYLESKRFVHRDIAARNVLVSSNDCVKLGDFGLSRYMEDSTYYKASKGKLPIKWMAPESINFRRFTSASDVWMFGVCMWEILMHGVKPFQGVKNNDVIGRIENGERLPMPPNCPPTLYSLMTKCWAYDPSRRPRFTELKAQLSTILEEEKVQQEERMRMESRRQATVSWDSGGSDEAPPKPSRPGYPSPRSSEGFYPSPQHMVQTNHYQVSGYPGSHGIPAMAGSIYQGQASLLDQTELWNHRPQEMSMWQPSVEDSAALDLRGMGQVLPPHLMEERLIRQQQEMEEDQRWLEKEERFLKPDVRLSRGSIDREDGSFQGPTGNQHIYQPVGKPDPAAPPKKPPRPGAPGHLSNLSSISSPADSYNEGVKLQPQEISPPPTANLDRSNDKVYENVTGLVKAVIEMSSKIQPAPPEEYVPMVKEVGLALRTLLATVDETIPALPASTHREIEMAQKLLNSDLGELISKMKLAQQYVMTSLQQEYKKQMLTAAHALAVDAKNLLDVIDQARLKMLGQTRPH

Turning to `CNS(=O)(=O)c1ccccc1Nc1nc(Nc2cc(N3CCN(C(C)=O)CC3)ccc2OC)ncc1Br` [Example 3-34], the IC50 was determined as 240 nM in experiment [1] (Mus musculus, 4T1); 100 nM in experiment [2]; 130 nM in experiment [3] (T-cell).
In the case of `CNS(=O)(=O)c1ccccc1Nc1nc(Nc2ccc(N3CCCC(C(N)=O)C3)cc2OC)ncc1Br` (stereo not shown) [Example 3-68], the IC50 was 5.5 nM in experiment [4] (FAK IC50); 630 nM in experiment [1] (Mus musculus, 4T1); 1000 nM in experiment [3] (T-cell).
Regarding `CCCS(=O)(=O)c1ccccc1Nc1nc(Nc2cc(N3CCN(C(C)=O)CC3)ccc2OC)ncc1Cl` [Example 26-15], the IC50 in experiment [4] (read-out: FAK IC50) was 6.9 nM; in experiment [5], 70 nM; in experiment [1] (Mus musculus, 4T1), 80 nM; in experiment [2], 1200 nM.
`CCNC(=O)c1ccccc1Nc1nc(Nc2ccc(N3CCOCC3)cc2OC)ncc1Cl` [Example 9-5]: the half-maximal inhibitory concentration (IC50) came to 22 nM in experiment [4] (read-out: FAK IC50), 600 nM in experiment [5], 1600 nM in experiment [1] and 360 nM in experiment [2].
For `CNS(=O)(=O)c1ccccc1Nc1nc(Nc2ccc(OC3CCN(C(C)C)C3)cc2OC)ncc1Cl` (stereo not shown) [Example 20-28], the IC50 in experiment [4] (read-out: FAK IC50) was 9.2 nM; in experiment [5], 420 nM; in experiment [1] (Mus musculus, 4T1) it was 80 nM; in experiment [2] it was 170 nM.
`CNC(=O)c1ccccc1Nc1nc(Nc2cc(N3CCN(C(C)=O)CC3)ccc2OC)ncc1Cl` [Example 7-30]: the IC50 amounted to 2.1 nM in experiment [4] (read-out: FAK IC50); 300 nM in experiment [1] (Mus musculus, 4T1); 1000 nM in experiment [3] (T-cell).
Turning to `CNS(=O)(=O)c1ccccc1Nc1nc(Nc2cc(OC)ccc2OC)ncc1Br` [Example 3-15], the IC50 was found to be 7 nM in experiment [4] (read-out: FAK IC50); 940 nM in experiment [5]; 800 nM in experiment [1] (Mus musculus, 4T1); 20 nM in experiment [2].
For `COc1cc(N2CCC(N3CCN(C)CC3)CC2)ccc1Nc1ncc(Cl)c(Nc2ccccc2S(=O)(=O)NC(C)C)n1` [Example 19-4], in that order: 1.6 nM, 140 nM, 340 nM and 200 nM.
The matching figures for `CC(C)NS(=O)(=O)c1ccccc1Nc1nc(Nc2ccc(N3CCOCC3)cc2F)ncc1Cl` [Example 19-25]: 7.2 nM, 240 nM, 490 nM and 1000 nM.
The matching figures for `COc1cc(N2CCOCC2)ccc1Nc1ncc(Cl)c(Nc2ccccc2S(=O)(=O)C2CCCC2)n1` [Example 33-2]: 5.2 nM, 100 nM, 250 nM and 60 nM.
In the case of `CNS(=O)(=O)c1ccccc1Nc1nc(Nc2ccc(OC3CCN(C)CC3)cc2OC)ncc1Cl` [Example 20-27], the IC50 in experiment [4] (read-out: FAK IC50) is 12 nM; in experiment [5] it was 290 nM; in experiment [1] (Mus musculus, 4T1), 50 nM; in experiment [2] it was 850 nM.
For `CCCS(=O)(=O)c1ccccc1Nc1nc(Nc2ccc(OC3CCN(C)CC3)cc2OC)ncc1Cl` [Example 26-26], in that order: 1.9 nM, 340 nM, 70 nM and 200 nM.
Regarding `CNC(=O)c1ccccc1Nc1nc(Nc2ccc(N3CCOCC3)cc2OC)ncc1Cl` [Example 7A, 2-[5-Chloro-2-(2-methoxy-4-morpholin-4-yl-phenylamino)-pyrimidin-4-ylamino]-N-methyl-benzamide], the half-maximal inhibitory concentration (IC50) in experiment [1] (Mus musculus, 4T1) amounted to 470 nM; in experiment [2] it was 210 nM; in experiment [3] (T-cell) it was 40 nM.
As to `CNS(=O)(=O)c1ccccc1Nc1nc(Nc2ccc(N3CCNCC3)cc2OC)ncc1Cl` [Example 20-7], the IC50 in experiment [4] (read-out: FAK IC50) stood at 3 nM; in experiment [5], 380 nM; in experiment [1] (Mus musculus, 4T1) it was 50 nM; in experiment [2] it was 100 nM.
The matching figures for `COc1cc(N2CCCC(C(N)=O)C2)ccc1Nc1ncc(Cl)c(Nc2ccccc2S(=O)(=O)C(C)C)n1` (stereo not shown) [Example 28-1]: 12 nM, 300 nM, 460 nM and 300 nM.
Consider `COc1cc(OC2CCN(C)CC2)ccc1Nc1ncc(Cl)c(Nc2ccccc2S(=O)(=O)NC2CCC2)n1` [Example 24-2], for which the IC50 was determined as 2.1 nM in experiment [4] (read-out: FAK IC50); 390 nM in experiment [5]; 110 nM in experiment [1] (Mus musculus, 4T1); 500 nM in experiment [2].
On to `CNC1CCN(c2ccc(Nc3ncc(Cl)c(Nc4ccccc4S(=O)(=O)NC(C)C)n3)c(OC)c2F)C1` (stereo not shown) [Example 19-12], for which the IC50 in experiment [4] (read-out: FAK IC50) is 9 nM; in experiment [5], 630 nM; in experiment [1] (Mus musculus, 4T1), 700 nM; in experiment [2], over 10000 nM.
In the case of `CCCCS(=O)(=O)c1ccccc1Nc1nc(Nc2ccc(N3CCOCC3)cc2OC)ncc1Cl` [Example 34-1], the half-inhibitory concentration (IC50) in experiment [4] (read-out: FAK IC50) turned out to be 8 nM; in experiment [5], 280 nM; in experiment [1] (Mus musculus, 4T1) it was 370 nM; in experiment [2] it was 100 nM.
The matching figures for `CNS(=O)(=O)c1ccccc1Nc1nc(Nc2ccc(N3CCC(C(N)=O)CC3)cc2OC)ncc1Br` [Example 3-43]: 5.6 nM, 270 nM, 110 nM and 200 nM.
With `CCOc1cc(N2CCOCC2)ccc1Nc1ncc(Br)c(Nc2ccccc2S(=O)(=O)NC)n1` [Example 3-58], the IC50 in experiment [4] (read-out: FAK IC50) was 21 nM; in experiment [5] it was 140 nM; in experiment [1] (Mus musculus, 4T1), 300 nM; in experiment [2] it was 80 nM.
Take `CNS(=O)(=O)c1ccccc1Nc1nc(Nc2ccc(N3CCC(N4CCCCC4)CC3)cc2OC)ncc1Cl` [Example 20-8]: the concentration for half-maximal inhibition (IC50) in experiment [1] amounted to 50 nM; in experiment [3], 290 nM.
`CNS(=O)(=O)c1ccccc1Nc1nc(Nc2cc(F)ccc2OC)ncc1Br` [Example 3-81]: the half-inhibitory concentration (IC50) in experiment [4] (read-out: FAK IC50) was 21 nM; in experiment [5], over 10000 nM; in experiment [1] (Mus musculus, 4T1) it was 980 nM; in experiment [2], 520 nM.
For `CNC(=O)c1ccccc1Nc1nc(Nc2ccc(N3CCN(C)CC3)cc2OC)ncc1Cl` [Example 7-3], in that order: 2.9 nM, 270 nM, 390 nM and 300 nM.
For `CNS(=O)(=O)c1ccccc1Nc1nc(Nc2ccc(N3CCOCC3)cc2OC)ncc1Br` [Example 3-19, 2-[5-Bromo-2-(2-methoxy-4-morpholin-4-yl-phenylamino)-pyrimidin-4-ylamino]-N-methyl-benzenesulfonamide], in that order: 6.8 nM, 100 nM, 800 nM and 350 nM.
Turning to `CNC(=O)c1ccccc1Nc1nc(Nc2ccc(N3CCC(N4CCN(C)CC4)CC3)cc2OC)ncc1Cl` [Example 7-14], the IC50 in experiment [4] (read-out: FAK IC50) was 7.6 nM; in experiment [5] it was 330 nM; in experiment [1] (Mus musculus, 4T1) it was 360 nM; in experiment [2], 300 nM.
On to `CNS(=O)(=O)c1ccccc1Nc1nc(Nc2cc(OC)c(OC)cc2C)ncc1Cl` [Example 20-35], for which the IC50 came to 8.7 nM in experiment [4] (read-out: FAK IC50); 150 nM in experiment [5]; 90 nM in experiment [1] (Mus musculus, 4T1); 90 nM in experiment [2].
Turning to `CNS(=O)(=O)c1ccccc1Nc1nc(Nc2ccc(OC)nc2OC)ncc1Br` [Example 3-50], the IC50 in experiment [4] (read-out: FAK IC50) was 13 nM; in experiment [5], 1190 nM; in experiment [1] (Mus musculus, 4T1), 1000 nM; in experiment [2] it was 120 nM.
For the compound `CCC(CC)NS(=O)(=O)c1ccccc1Nc1nc(Nc2ccc(N3CCN(C)CC3)cc2OC)ncc1Cl` [Example 23-2], the IC50 was determined as 1.5 nM in experiment [4] (read-out: FAK IC50); 800 nM in experiment [5]; 400 nM in experiment [1] (Mus musculus, 4T1); 200 nM in experiment [2].
As for `CCNC1CCN(c2ccc(Nc3ncc(Cl)c(Nc4ccccc4S(=O)(=O)NC(CC)CC)n3)c(OC)c2)C1` (stereo not shown) [Example 23-4], the IC50 in experiment [4] (read-out: FAK IC50) came out at 1.2 nM; in experiment [5], 600 nM; in experiment [1] (Mus musculus, 4T1), 1070 nM; in experiment [2], 900 nM.
For `COc1cc(OC2CCN(C)CC2)ccc1Nc1ncc(Cl)c(Nc2ccccc2S(=O)(=O)NC2CCCC2)n1` [Example 25-2], in that order: 3 nM, 640 nM, 130 nM and 400 nM.
The matching figures for `COc1cc(N2CCOCC2)ccc1Nc1ncc(Cl)c(Nc2ccccc2S(=O)(=O)CC(C)C)n1` [Example 32-2]: 5.9 nM, 120 nM, 370 nM and 50 nM.
As for `COc1cc(N2CCOCC2)ccc1Nc1ncc(Cl)c(Nc2ccccc2S(=O)(=O)NC2CCC2)n1` [Example 24-1], the IC50 stood at 3.6 nM in experiment [4] (read-out: FAK IC50); 50 nM in experiment [5]; 440 nM in experiment [1] (Mus musculus, 4T1); 110 nM in experiment [2].
Take `CNS(=O)(=O)c1ccccc1Nc1nc(Nc2cc(OC)c(OC)cc2C)ncc1Br` [Example 3-17]: the IC50 in experiment [4] (FAK assay system, read-out: FAK inhibition IC50) was 1 to 5 nM; in experiment [4] (read-out: FAK IC50), 2.8 nM; in experiment [5] it was under 80 nM; in experiment [1] (Mus musculus, 4T1), 200 nM; in experiment [2], 30 nM.
For `CCCS(=O)(=O)c1ccccc1Nc1nc(Nc2ccc(N3CCN(C(C)C)CC3)cc2OC)ncc1Cl` [Example 26-23], the IC50 in experiment [4] (read-out: FAK IC50) was 1.4 nM; in experiment [5] it was 180 nM; in experiment [1] (Mus musculus, 4T1) it was 90 nM; in experiment [2], 300 nM.
For `CNS(=O)(=O)c1ccccc1Nc1nc(Nc2ccc(N3CCS(=O)(=O)CC3)cc2OC)ncc1Br` [Example 3-44], in that order: 11 nM, 90 nM, 90 nM and 50 nM.
For `CCC(CC)NS(=O)(=O)c1ccccc1Nc1nc(Nc2ccc(N3CCC(NC)C3)cc2OC)ncc1Cl` (stereo not shown) [Example 23-3], in that order: 1.7 nM, 820 nM, 1120 nM and 1000 nM.

The term IC50 denotes the point on the concentration scale where inhibition reaches its midpoint.
